Assay results from US20240115654A1, “INTRAVENOUS ADMINISTRATION OF ENGINEERED ANTIMICROBIAL AMPHIPHILIC PEPTIDES” (priority 2021, published 2024).
≈ marks a conversion by molar mass, not a printed value. Read-outs that look alike come from different tables or passages of the source. Peptide text beside a SMILES is read from it.

How the values were obtained:
[1] = mouse, in vivo, iv, 3 mg/kg
Description: Male CD-1 mice will be received from an approved vendor and allowed to acclimate for a minimum of two days. Fasting will be not required.
All dosing syringes will be weighed prior to and following dosing. IV doses will be administered as a slow bolus (over ˜30 seconds) via direct venipuncture of a tail vein. All animals will be observed at dosing and each scheduled collection. All abnormalities will be recorded.
Terminal blood samples will be collected via cardiac puncture following inhalation anesthesia.
Sample Processing and Storage: Blood samples will be collected into K2EDTA tubes and stored on wet ice. Whole blood will be processed to plasma by centrifugation (3500 rpm at 5° C.) within 30 minutes of collection. Plasma samples will be split into 2 equal aliquots and each transferred into 96 well plates (matrix tubes) and stored at −80° C. until analysis. Administered doses will be determined gravimetrically.
Prior to extraction, a known concentration of a mass-adjusted internal standard (IS) will be added to assess recovery and allow for quantitation. Purified samples will be further subjected to high-performance liquid chromatography (HPLC) using C18 300 or 130 angstrom columns prior to MS/MS analysis. Multiple charge states will be observed by MS, so MS/MS will be employed to enable multiple reaction monitoring (MRM) analyses to determine the most MRM transitions with the highest signal-to-noise gain. Compound plasma concentrations will be determined by comparing to and compensating with co-purified IS peak intensity and validated calibrated standard curves.
Pharmacokinetic parameters will be calculated using non-compartmental methods as implemented in the Phoenix® WinNonlin® ver. 6.3 comprehensive TK/PK analysis software program (Pharsight Corporation; Mountain View, CA) using an IV infusion model. Pharmacokinetic analysis will be conducted using a 30-minute intravenous infusion time. Therefore, 30 minutes will be added to each sample time point postdose to obtain nominal time for TK analysis. Nominal times and dosage levels will be used for all calculations. Values below the lower limit of quantitation (BLQ) will be assigned a value of zero for the pharmacokinetic calculations. Microsoft® Excel® 2013 will be used for receipt of bioanalytical data, minor formatting, including setting BLQ values to “0”, transfer into WinNonlin® for PK analysis, and calculation of the mean when an approximated value will be excluded. All plasma concentration data from all animals will be included in the analysis. Graphical presentations will be performed using Microsoft® Excel® 2013.

[2] = system: Enterococcus faecium ATCC 51559 (VRE); assay type: cell-based; settings: Enterococcus faecium ATCC 51559 (VRE)
Outline: (§1)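 CLSI broth microdilution in Mueller Hinton II broth with 0.002% polysorbate 80; peptides in 2-fold serial dilution, highest final test concentration 32 mcg/mL. Inoculum approx. 5×10^5 CFU/mL, incubated 35° C for 16 to 20 hrs. MIC taken as lowest peptide concentration preventing visible growth.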

[3] = system: Acinetobacter baumannii ATCC 19606 (non-MDR); assay type: cell-based; settings: Acinetobacter baumannii ATCC 19606 (non-MDR)
Outline: as §1

[4] = system: Streptococcus pyogenes ATCC 49399; assay type: cell-based; settings: Streptococcus pyogenes ATCC 49399
Outline: as §1

[5] = system: Streptococcus pneumoniae ATCC 49619 (QC); assay type: cell-based; settings: Streptococcus pneumoniae ATCC 49619 (QC)
Outline: as §1

[6] = system: Enterococcus faecalis ATCC 700802 (V583 VRE); assay type: cell-based
Outline: as §1

[7] = system: Escherichia coli ATCC BAA-2471 (NDM-1); assay type: cell-based; settings: Escherichia coli ATCC BAA-2471 (NDM-1)
Outline: as §1

[8] = system: Pseudomonas aeruginosa ATCC BAA-2109 (MDR); assay type: cell-based; settings: Pseudomonas aeruginosa ATCC BAA-2109 (MDR)
Outline: as §1

[9] = system: Escherichia coli ATCC 35218 (ESBL); assay type: cell-based; settings: Escherichia coli ATCC 35218 (ESBL)
Outline: as §1

[10] = system: Enterococcus faecalis ATCC 29212 (VSE; QC); assay type: cell-based; settings: Enterococcus faecalis ATCC 29212 (VSE; QC)
Outline: as §1

[11] = system: Klebsiella pneumoniae ATCC BAA-1705 (KPC); assay type: cell-based
Outline: as §1

[12] = system: Staphylococcus aureus ATCC 29213 (MSSA; QC); assay type: cell-based; settings: Staphylococcus aureus ATCC 29213 (MSSA; QC)
Outline: as §1

[13] = system: P. aeruginosa strains (PAO1 and 2 clinical isolates); experiment: Determination of bacterial resistance, passage at 0.5×MIC with daily MIC; assay type: cell-based, Pseudomonas aeruginosa; settings: three P. aeruginosa strains, exposure at 0.5×MIC, FIG. 20
Description: Each antibiotic was compared for their propensity to select for bacterial resistance phenotypes in vitro.

[14] = system: Pseudomonas aeruginosa ATCC 27853 (non-MDR; QC); settings: P. aeruginosa ATCC 27853; established CLSI QC range; cited from earlier work

| Compound | Tmax [1] [min] | MIC [2] [µg/mL] | MIC [3] [µg/mL] | MIC [4] [µg/mL] | MIC [5] [µg/mL] | MIC ([6]; ATCC 700802) [µg/mL] | MIC [7] [µg/mL] | MIC [8] [µg/mL] | MIC [9] [µg/mL] | MIC [10] [µg/mL] | MIC ([11]; ATCC BAA-1705) [µg/mL] | MIC [12] [µg/mL] | time to development of resistance (fold MIC >10) [13] [days] | MIC ([6]; Enterococcus faecalis ATCC 700802 (V583 VRE)) [µg/mL] | MIC ([11]; Klebsiella pneumoniae ATCC BAA-1705 (KPC)) [µg/mL] | MIC QC range (in parentheses under the MIC) [14] |
| --- | --- | --- | --- | --- | --- | --- | --- | --- | --- | --- | --- | --- | --- | --- | --- | --- |
| CC(C)[C@H](NC(=O)[C@H](Cc1c[nH]c2ccccc12)NC(=O)[C@H](CCCNC(=N)N)NC(=O)[C@H](CCCNC(=N)N)NC(=O)[C@@H](NC(=O)[C@@H](NC(=O)[C@H](CCCNC(=N)N)NC(=O)[C@@H](NC(=O)[C@@H](NC(=O)[C@H](CCCNC(=N)N)NC(=O)[C@H](CCCNC(=N)N)NC(=O)[C@H](Cc1c[nH]c2ccccc12)NC(=O)[C@@H](NC(=O)[C@H](CCCNC(=N)N)NC(=O)[C@H](CCCNC(=N)N)NC(=O)[C@@H](NC(=O)[C@H](CCCNC(=N)N)NC(=O)[C@H](CCCNC(=N)N)NC(=O)[C@@H](NC(=O)[C@H](Cc1c[nH]c2ccccc12)NC(=O)[C@H](CCCNC(=N)N)NC(=O)[C@@H](N)CCCNC(=N)N)C(C)C)C(C)C)C(C)C)C(C)C)C(C)C)C(C)C)C(C)C)C(=O)N[C@@H](CCCNC(=N)N)C(=O)N[C@@H](CCCNC(=N)N)C(N)=O [SEQ ID NO: 1] (H-RRWVRRVRRVWRRVVRVVRRWVRR-NH2) | 2 | 2 (≈ 0.588 µM) | 2 (≈ 0.588 µM) | 8 (≈ 2.35 µM) | 16 (≈ 4.71 µM) | 4 (≈ 1.18 µM) | 2 (≈ 0.588 µM) | 4 (≈ 1.18 µM) | 8 (≈ 2.35 µM) | 8 (≈ 2.35 µM) | 8 (≈ 2.35 µM) | 8 (≈ 2.35 µM) |  |  |  |  |
| Colistin [reference compound] |  | >32 | 0.25 | >32 | >32 |  | 0.06 | 0.12 | 0.12 | >32 |  | >32 | ≤ 13 | >32 | 0.12 | (0.5-4) μg/mL |
